Where a name gives a salt, the structure may show the parent alone.
Key:
hD1 and wild-type mice = assay: Seizure observation in mice; assay type: in vivo, mouse; conditions: higher doses, unpublished observation
hD1 mice [1] = assay: Locomotor activity (LMA) in hD1 mice; assay type: in vivo, mouse; conditions: hD1 mice; for Shape of LMA dose-response curve: DETQ up to 240 mg/kg
Text: Male hD1 mice, 8–10 weeks old (weighing 18 to 25 g at the time of the experiment), were used. Monitoring of mouse LMA took place in transparent plastic shoebox cages having dimensions of 45 × 25 × 20 cm, with a 1-cm depth of wood chips for absorbent bedding, and covered with a ventilated filtered plastic cage top.
Cages were placed in a rectangular frame containing a grid of 12 photocell beams in an 8 × 4 configuration (Kinder Scientific, Poway, CA) that were positioned 2.5 cm from the floor of the cage for the detection of body movements (ambulations), which were recorded by computer for analysis. Mice were placed inside individual LMA boxes for 1 hour during an acclimation period. Mice were then dosed with test compounds (oral or subcutaneous) and were replaced inside individual LMA boxes for the start of LMA. Photocell activity (total ambulations) was collected for 60 minutes using software from Hamilton Kinder (Poway, CA).
Calculation of data based on total ambulations was done using Excel (Microsoft, Redmond, WA). Graphing and statistical analysis of data were done using one-way analysis of variance followed by Dunnett’s multiple comparison test using GraphPad Prism.

human D1 receptor [2] = target: T1, human D1 receptor (Homo sapiens, UniProt P21728); assay: cAMP response in HEK293 cells stably expressing the human D1 receptor; assay type: cell-based; conditions: with 12 nM dopamine; % of window between EC20 dopamine and maximum dopamine response
hD1 mice [3] = assay: Video-tracking of horizontal motion, rearing and grooming in hD1 mice; assay type: in vivo, mouse
Text: The apparatus for the video-tracking assessment experiment included 12 custom-built video-tracking observation chambers and the HomeCageScan (CleverSys, Reston, VA) software system. The chambers, measuring (in inches) 8 width × 10 length × 8 height, consisted of two end walls, a back wall, a top, and a floor constructed of ¼-in. translucent white acrylic, and one side (front) constructed of clear acrylic. LED strip lighting was placed below the chamber for illumination. A color video camera (640 × 480, 30 frames per second) was placed in front of each chamber to record behavior from a side view. The chambers were located in large sound-attenuating chambers to reduce ambient room noise and isolate lighting. The cameras were connected in groups of four to a quad multiplexer (model NVQC-42N; Nuvico, Englewood, NJ), with each multiplexer connected to its own computer, which then recorded each session to an MPEG file.
At the end of the experiment the files were batch-analyzed by a computer running the CleverSys CageScan video-tracking software. This software can recognize and quantify several different behaviors, including LMA, grooming, rearing, immobility, and feeding behaviors. The current experiment examined behavior in a novel open-field environment rather than home-cage activity, which limited behaviors of interest to LMA, grooming, and rearing.
For HomeCageScan behavioral phenotyping, male D1 knock-in mice (8–12 weeks, 20–25 g body weight) were placed into the observation chambers for a 60-minute habituation session. […] All behavioral activity was monitored and scored by the HomeCageScan system.

human D1 receptor [4] = target: T1, human D1 receptor; assay: D1 receptor internalization (PathHunter, DiscoveRx)
hD1 mice [5] = assay: Locomotor activity (LMA) in hD1 mice; assay type: in vivo, mouse; conditions: nonhabituated hD1 mice, 30 min pretreatment
[6] = with EC20 dopamine, 0% = EC20 dopamine response, 100% = maximum dopamine response

T1 sequence (P21728 whole entry): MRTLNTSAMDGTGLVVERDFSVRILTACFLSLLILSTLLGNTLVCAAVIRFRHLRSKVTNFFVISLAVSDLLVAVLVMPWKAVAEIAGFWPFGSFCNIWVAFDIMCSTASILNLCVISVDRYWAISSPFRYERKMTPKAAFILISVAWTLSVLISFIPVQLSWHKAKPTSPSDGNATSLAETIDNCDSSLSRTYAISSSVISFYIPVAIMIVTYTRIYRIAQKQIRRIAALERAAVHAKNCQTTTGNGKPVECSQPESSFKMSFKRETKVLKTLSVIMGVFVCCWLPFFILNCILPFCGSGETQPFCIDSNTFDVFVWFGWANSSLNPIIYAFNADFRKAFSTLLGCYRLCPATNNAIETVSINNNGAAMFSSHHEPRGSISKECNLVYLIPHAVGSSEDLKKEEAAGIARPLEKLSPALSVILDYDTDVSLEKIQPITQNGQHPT

## CCCc1cc2c(s1)CN[C@@H]1CCc3cc(OC(C)=O)c(OC(C)=O)cc3[C@@H]21 [ABT-431, adrogolide hydrochloride]
hD1 and wild-type mice
  Seizures: induced seizures

## Oc1cc2c(cc1O)[C@H]1c3ccccc3CN[C@@H]1CC2 (racemic) [dihydrexidine, reference compound]
hD1 mice [1]
  Shape of LMA dose-response curve: bell-shaped curves

## Cl.NC[C@@H]1O[C@H](C23CC4CC(CC(C4)C2)C3)Cc2c1ccc(O)c2O [A-77636, (1R)-3-(1-adamantyl)-1-(aminomethyl)-3,4-dihydro-1H-isochromene-5,6-diol;hydrochloride, reference compound]
Human D1 receptor [2]
  Top, cAMP, potentiator mode: 121.0%
hD1 mice [1]; once daily for 4 days
  LMA response on repeated once-a-day dosing: completely abolished by day 2
hD1 mice [1]
  Shape of LMA dose-response curve: bell-shaped curves
hD1 mice [3]
  Horizontal locomotion and rearing: increase in horizontal locomotion and rearing at lower doses
Human D1 receptor [4]; RA for cAMP divided by RA for internalization
  Pathway Preference cAMP/Internalization: 6.6
Human D1 receptor [4]; top divided by EC50, with 407 nM dopamine
  RA, Internalization: 7.78
Human D1 receptor [4]; [6]
  Bottom, D1 receptor internalization: −12.8%
  Top, D1 receptor internalization: 112.0%

## C=CCN1CCc2c(cc(O)c(O)c2Cl)C(c2ccccc2)C1 (stereo not drawn) [SKF 82958, 9-chloro-5-phenyl-3-prop-2-enyl-1,2,4,5-tetrahydro-3-benzazepine-7,8-diol]
hD1 mice [1]
  Shape of LMA dose-response curve: bell-shaped curves
hD1 mice [3]
  Grooming (index of stereotyped behavior): supplanted by grooming at higher doses
  Horizontal locomotion and rearing: increase in horizontal locomotion and rearing at lower doses

## CN1CCc2cc(Cl)c(O)cc2[C@H]2c3ccccc3CC[C@@H]21 [SCH39166, (6aS,13bR)-11-chloro-7-methyl-5,6,6a,8,9,13b-hexahydronaphtho[1,2-a][3]benzazepin-12-ol]
hD1 mice [5]
  Dose that lowered DETQ-stimulated activity: 0.03 mg/kg
  Dose that lowered basal exploratory activity: 0.01 mg/kg

Reference: article PMC5193077, “An Allosteric Potentiator of the Dopamine D1 Receptor Increases Locomotor Activity in Human D1 Knock-In Mice without Causing Stereotypy or Tachyphylaxis” (The Journal of Pharmacology and Experimental Therapeutics, 2017)
